Patent US11591367B2, “Melanocortin-1-receptor agonists” (DSM IP ASSETS B.V., priority 2016, dated 2023)
Where two headings read alike, the source gives them in different places. Residues, ends and D or L forms follow the SMILES beside them.

Tests used:
human MC1 receptor = molecular target: T1, human MC1 receptor (Homo sapiens, UniProt Q01726); assay: Human MC1 receptor cAMP HTRF functional assay (MC1R stimulation); type: cell-based
T1 construct: expressed in transfected cells; host or cells: Chinese Hamster Ovary (CHO) cells
T1 sequence (Q01726 whole entry): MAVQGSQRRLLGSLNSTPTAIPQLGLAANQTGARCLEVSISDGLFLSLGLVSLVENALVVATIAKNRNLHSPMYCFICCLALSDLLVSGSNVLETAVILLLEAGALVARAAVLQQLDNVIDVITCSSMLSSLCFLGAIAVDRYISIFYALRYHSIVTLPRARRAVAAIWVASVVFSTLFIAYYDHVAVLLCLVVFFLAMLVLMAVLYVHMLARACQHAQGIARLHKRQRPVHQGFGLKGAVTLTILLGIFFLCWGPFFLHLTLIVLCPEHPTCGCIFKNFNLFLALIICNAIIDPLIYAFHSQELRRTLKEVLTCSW
Procedure: Human MC1 Receptor Using cAMP HTRF Functional Assay:
Twenty seven (27) compounds were tested for agonist activity at the human MC1 receptor using cAMP HTRF (homogeneous time-resolved fluorescence) assays at eight (8) concentrations and in duplicate.
On the day of experimentation, compounds were tested at several concentrations in duplicate wells (n=2) to obtain a dose-response curve and an estimated EC50 value. Values obtained for the reference compound were compared to historical values obtained from the same receptor and used to validate the experimental session. For replicate determinations, the maximum variability tolerated in the test was of +/−20% around the average of the replicates.
Assay: After cultivation Chinese Hamster Ovary (CHO) cells were detached and incubated at a specific cell density in assay buffer. At this stage the CHO cells express the human MC1R at their surface. Agonist compounds were added at determined concentration and incubated for 30 min. Cells were lysed in detection buffer in order to extract cAMP. The amount of cAMP within the cells correlates with GPCR-activity, meaning that in this assay it correlates with MC1R-activity. cAMP was detected in a competitive HTRF assay for binding to an anti-cAMP-antibody.

[1] = system: Skin samples (from abdominal plastic surgery); assay: Ex-vivo skin pigmentation trial (melanin amount, Fontana-Masson stain); type: cell-based; settings: 4 μl/200 μM of active applied topically daily; melanin amount at day 6; % increase versus untreated
Procedure: Skin samples (from abdominal plastic surgery) have been cut in pieces of approx. 8×3 mm (Øx thickness) and were cultured up to day 6 in an air-liquid interface in a perforated ring of stainless steel in contact with a culture medium (modified Williams'E medium), the culture medium has been renewed every three days. Six skin specimens have been used for each treatment. Each test sample (4 μl/200 μM of active) has been applied topically on top of each piece after gentle cleaning of the surface with a cotton pad followed by covering with a 6 ø mm delivery membrane, which procedure has been repeated daily. After 6 days of incubation, the melanin amount was assessed on twelve skin sections for each treatment by staining using a modified Fontana-Masson stain. The amount of melanin present in each slide has been evaluated by estimating the intensity and the distribution of grey tone: 8-bit grey-scale images for each treatment have been captured at the microscope. Then the colour space of the images have been transformed from RGB into L*a*b* images and each pixel of the picture has been evaluated according to its L* values. The obtained results have been transformed in ranks of L* and then normalized on the ratio between the selected area and the area of the slide. The result is indicated as % increase versus untreated at day 6.

[2] = agonist activity, CHO cells expressing human MC1R, 30 min incubation, 8 concentrations in duplicate, read-out: EC50 [nM], MC1R stimulation assay

| Compound | EC50 (human MC1 receptor; [2]) [nM] | skin pigmentation increase versus untreated [1] | EC50 (human MC1 receptor) [nM] |
| --- | --- | --- | --- |
| N=C(N)NCCC[C@H](NC(=O)[C@@H](Cc1ccccc1)NC(=O)[C@H](Cc1c[nH]cn1)NC(=O)CNC(=O)c1ccccc1)C(=O)N[C@@H](Cc1c[nH]c2ccccc12)C(N)=O [(I-a), Bz-Gly-His-D-Phe-Arg-Trp-NH2 *2TFA] (HELM PEPTIDE1{[O=C(c1ccccc1)[*:2]].G.H.[dF].R.W.[am]}$$$$V2.0) | 0.041 | +18% | – |
| N=C(N)NCCC[C@H](NC(=O)[C@@H](Cc1ccccc1)NC(=O)[C@H](Cc1c[nH]cn1)NC(=O)CNC(=O)c1ccccc1)C(=O)N[C@H](Cc1ccc2ccccc2c1)C(N)=O [(I-b), Bz-Gly-His-D-Phe-Arg-D-2-NaphAla-NH2 *2TFA] (HELM PEPTIDE1{[O=C(c1ccccc1)[*:2]].G.H.[dF].R.[O=C([C@@H](Cc1ccc2ccccc2c1)N[*:1])[*:2]].[am]}$$$$V2.0) | 0.25 | – | – |
| N=C(N)NCCC[C@H](NC(=O)[C@@H](Cc1ccccc1)NC(=O)[C@H](Cc1c[nH]cn1)NC(=O)CNC(=O)c1ccccc1)C(=O)N[C@@H](Cc1ccc2ccccc2c1)C(N)=O [(I-c), Bz-Gly-His-D-Phe-Arg-L-2-NaphAla-NH2 *2TFA] (HELM PEPTIDE1{[O=C(c1ccccc1)[*:2]].G.H.[dF].R.[O=C([C@H](Cc1ccc2ccccc2c1)N[*:1])[*:2]].[am]}$$$$V2.0) | 0.11 | – | – |
| CCCN(CCC)C(=O)[C@@H](Cc1c[nH]c2ccccc12)NC(=O)[C@H](CCCNC(=N)N)NC(=O)[C@@H](Cc1ccccc1)NC(=O)[C@H](Cc1c[nH]cn1)NC(=O)CNC(=O)c1ccccc1 [(I-d), Bz-Gly-His-D-Phe-Arg-D-Trp-N(Propyl)2 *2TFA] (HELM PEPTIDE1{[O=C(c1ccccc1)[*:2]].G.H.[dF].R.[dW].[CCCN(CCC)[*:1]]}$$$$V2.0) | 0.42 | +21% | – |
| CCCN(CCC)C(=O)[C@H](Cc1c[nH]c2ccccc12)NC(=O)[C@H](CCCNC(=N)N)NC(=O)[C@@H](Cc1ccccc1)NC(=O)[C@H](Cc1c[nH]cn1)NC(=O)CNC(=O)c1ccccc1 [(I-e), Bz-Gly-His-D-Phe-Arg-Trp-N(Propyl)2 *2TFA] (HELM PEPTIDE1{[O=C(c1ccccc1)[*:2]].G.H.[dF].R.W.[CCCN(CCC)[*:1]]}$$$$V2.0) | 0.88 | – | – |
| CCCCCCCCNC(=O)[C@H](Cc1c[nH]c2ccccc12)NC(=O)[C@H](CCCNC(=N)N)NC(=O)[C@@H](Cc1ccccc1)NC(=O)[C@H](Cc1c[nH]cn1)NC(=O)CNC(=O)c1ccccc1 [(I-f), Bz-Gly-His-D-Phe-Arg-Trp-NHOctyl *2TFA] (HELM PEPTIDE1{[O=C(c1ccccc1)[*:2]].G.H.[dF].R.W.[CCCCCCCCN[*:1]]}$$$$V2.0) | 1.06 | – | – |
| N=C(N)NCCC[C@H](NC(=O)[C@@H](Cc1ccccc1)NC(=O)[C@H](Cc1c[nH]cn1)NC(=O)CNC(=O)c1ccccc1)C(=O)N[C@H](Cc1ccccc1)C(N)=O [(I-g), Bz-Gly-His-D-Phe-Arg-D-Phe-NH2 *2TFA] (HELM PEPTIDE1{[O=C(c1ccccc1)[*:2]].G.H.[dF].R.[dF].[am]}$$$$V2.0) | 1.79 | – | – |
| NCC[C@H](NC(=O)[C@@H](Cc1ccccc1)NC(=O)[C@H](Cc1c[nH]cn1)NC(=O)CNC(=O)c1ccccc1)C(=O)N[C@@H](Cc1c[nH]c2ccccc12)C(N)=O [(I-h), Bz-Gly-His-D-Phe-Dab-Trp-NH2 *2TFA] (HELM PEPTIDE1{[O=C(c1ccccc1)[*:2]].G.H.[dF].[Dab].W.[am]}$$$$V2.0) | 7.51 | – | – |
| N=C(N)NCCC[C@H](NC(=O)[C@@H](Cc1ccccc1)NC(=O)[C@H](Cc1cnc[nH]1)NC(=O)CNC(=O)c1ccccc1)C(=O)N(CCc1c[nH]c2ccccc12)CC(N)=O [(I-i), Bz-Gly-His-D-Phe-Arg-(N-IndEt)Gly-NH2 *2TFA] (HELM PEPTIDE1{[O=C(c1ccccc1)[*:2]].G.H.[dF].R.[O=C(CN(CCc1c[nH]c2ccccc12)[*:1])[*:2]].[am]}$$$$V2.0) | 4.4 | – | – |
| CCCN(CCC)C(=O)[C@H](Cc1c[nH]c2ccccc12)NC(=O)[C@H](CCCNC(=N)N)NC(=O)[C@@H](Cc1ccccc1)NC(=O)[C@@H](Cc1c[nH]cn1)NC(=O)CNC(=O)c1ccccc1 [Compound R1, Bz-Gly-D-His-D-Phe-Arg-Trp-N(Propyl)2 *2TFA, reference compound] (HELM PEPTIDE1{[O=C(c1ccccc1)[*:2]].G.[dH].[dF].R.W.[CCCN(CCC)[*:1]]}$$$$V2.0) | – | – | 36 |
| CCCN(CCC)C(=O)[C@H](Cc1c[nH]c2ccccc12)NC(=O)[C@H](CCCNC(=N)N)NC(=O)[C@H](Cc1ccccc1)NC(=O)[C@H](Cc1c[nH]cn1)NC(=O)CNC(=O)c1ccccc1 [Compound R2, Bz-Gly-His-Phe-Arg-Trp-N(Propyl)2 *2TFA, reference compound] (HELM PEPTIDE1{[O=C(c1ccccc1)[*:2]].G.H.F.R.W.[CCCN(CCC)[*:1]]}$$$$V2.0) | – | – | 51.4 |
| CCCN(CCC)C(=O)[C@H](Cc1c[nH]c2ccccc12)NC(=O)[C@@H](CCCNC(=N)N)NC(=O)[C@@H](Cc1ccccc1)NC(=O)[C@H](Cc1c[nH]cn1)NC(=O)CNC(=O)c1ccccc1 [Compound R3, Bz-Gly-His-D-Phe-D-Arg-Trp-N(Propyl)2 *2TFA, reference compound] (HELM PEPTIDE1{[O=C(c1ccccc1)[*:2]].G.H.[dF].[dR].W.[CCCN(CCC)[*:1]]}$$$$V2.0) | – | – | 70.1 |
| N=C(N)NCCC[C@H](NC(=O)[C@@H](Cc1ccccc1)NC(=O)[C@H](Cc1c[nH]cn1)NC(=O)CNC(=O)c1ccccc1)C(=O)NCCc1c[nH]c2ccccc12 [Compound R4, Bz-Gly-His-D-Phe-Arg-Tryptamide *2TFA, reference compound] (HELM PEPTIDE1{[O=C(c1ccccc1)[*:2]].G.H.[dF].R.[c1ccc2c(CCN[*:1])c[nH]c2c1]}$$$$V2.0) | 42.9 | – | – |
